Earlier results, collected in patent US5565433A, “Sulfated β-glycolipid derivatives as cell adhesion inhibitors” (Bristol-Myers Squibb Company, priority 1996, dated 1996).

System: P-selectin
Settings: cells grown in the presence of sodium selenate; cited from earlier work

In the case of `O=[Se](=O)(O)O` [sodium selenate], the “inhibition of P-selectin binding to myeloid cell lines (in words)” value is given as “can be inhibited”.
